The target in test [1] is T1, Olfr556 (Mus musculus, UniProt B2RRG2).
T1 sequence (B2RRG2 1-324): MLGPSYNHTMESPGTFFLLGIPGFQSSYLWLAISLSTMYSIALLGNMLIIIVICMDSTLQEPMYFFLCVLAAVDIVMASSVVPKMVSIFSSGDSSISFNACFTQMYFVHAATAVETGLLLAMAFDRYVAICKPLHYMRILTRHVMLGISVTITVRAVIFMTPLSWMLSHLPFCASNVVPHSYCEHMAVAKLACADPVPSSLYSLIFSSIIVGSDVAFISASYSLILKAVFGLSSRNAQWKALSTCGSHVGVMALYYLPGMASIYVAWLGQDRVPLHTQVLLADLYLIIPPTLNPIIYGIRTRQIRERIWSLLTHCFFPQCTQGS
The settings on record: expressed in HEK cells; previously shown; read-out: EC50 as agonist of Olfr556; cited from earlier work.

In a further test the test system is Olfr983. The conditions noted are these: expressed in HEK cells; previously shown; read-out: EC50 as agonist of Olfr983; cited from earlier work.
For a further test, the system named is Olfr160. The conditions noted are these: dissociated neurons; previously shown; read-out: EC50 as agonist of Olfr160; cited from earlier work.
Test [2] deals with T1, Olfr556. In words: OR transcript level by RT-qPCR after in vivo odorant exposure. The arrangement: from tissue; host or cells: main olfactory epithelium of exposed mice; key to olfr556 candidate OR (RNAseq) confirmed by qPCR: The transcript downregulation of 21 out of the 26 olfactory receptor candidates obtained by RNAseq was confirmed by qPCR; false RNAseq positive candidates, namely OR candidates for which in fact mRNA was not downregulated following acetophenone exposure. The conditions noted are these: for Olfr556 mRNA level relative to unexposed controls: 5% odorant, 5 hours, in vivo, RT-qPCR. The protocol:
In vivo exposure to odorant: Starting 48 h before experiments, mice were habituated to pure DMSO on a cotton ball. 200 μl were pipetted directly onto the cotton and placed in the cage, replacing any cotton that was already in the cage for nest-making purposes.
On the day of the experiment, mice receiving odorants were transferred to a different room, where they were exposed to a cotton ball on which 200 μl of odorant diluted in pure DMSO were deposited. […] […] If a number of different odorants were tested in the same experiment, a different overpressurized room would always be used for each odorant to avoid odor cross-contamination.
After odorant exposure, mice were killed by cervical dislocation and immediately decapitated. The main olfactory epithelia (MOE), were harvested in their entirety and transferred to a tube containing 600 μl of lysis buffer and β-mercaptoethanol (RNAeasy kit, Qiagen, following the manufacturer protocol) and a 0.5 cm diameter steel ball, and then put on ice. Samples were then homogenized using a FastPrep®-24 instrument (MP Biomedicals) at 6 m/s for 30 s and left on ice. RNA extraction was performed on all samples in parallel using the Qiagen RNeasy Mini® kit following the manufacturer's instructions. Two DNase treatments were performed on all samples: first using the Qiagen RNase-Free DNase Set® and then using the Life Technologies Ambion DNase I® kit. RNA samples were then aliquoted and stored at −80° C.
RNA concentrations were determined using an Amersham Ultrospec® 3100 Pro spectrophotometer, and RNA quality was evaluated with an Agilent Technologies 2100 Bioanalyzer®. Each reverse transcription was performed with 0.5 μg RNA using the Takara Primescript® kit, in a final volume of 10 μl. Primers for reverse transcription were equal mixtures of poly-T nucleotides and random hexamers. Negative controls (omitting the reverse transcriptase enzyme) were performed for each sample. 1/14th of the cDNA preparation was used for each triplicated qPCR reaction.
qPCR Ct values were analyzed using an in-house developed Microsoft Excel® macro file. Triplicate values were compared and outliers (values with a difference higher than 0.5 Ct to their nearest neighbor) were discarded. The number of conditions with an outlying value was always less than 10% of the total number of conditions. Ct values were converted to quantities relative to the maximum for each given gene. Selected reference genes were then analyzed for variance using the geNorm algorithm. All values were normalized with the olfactory tissue-specific genes Omp and Adcy3. β-Actin was used as a non-tissue-specific reference gene to control for differences in dissection between samples. […]
For orientation: In qPCR the cycle at which signal appears reflects the starting amount.

The target in test [3] is T1, Olfr556. In words: OR transcript downregulation by RNAseq after in vivo exposure. The arrangement: from tissue; host or cells: main olfactory epithelium of exposed mice. The conditions noted are these: 5% odorant, 5 hours, reduction larger than 20% = downregulated. The protocol:
Animals were exposed to 5% acetophenone for 5 hours before RNA extraction (as previously described). cDNA libraries were generated with the Truseq RNA and DNA sample preparation kits after selection of polyA-containing mRNAs. Adapters for RNAseq multiplexing were added to the cDNAs. The cDNA libraries were sequenced with a HiSeq®2500 Sequencing system. 100 bp reads were mapped using Bowtie2 with a 28 bp seed. The differential gene expression analyses were performed with DESeq2. Because of the high sequence similarity between OR gene paralogs, some reads are mapped to multiple OR genes. These reads were removed from the analysis.
Mice (n=6) were exposed to 5% acetophenone or to a “neutral” control condition for 5 hours. An olfactory cDNA library corresponding to each animal was deep sequenced and the ratios of odorant receptor mRNA concentrations relative to controls were plotted (FIG. 3). […] Based on transcriptional downregulation levels observed by RNAseq following acetophenone exposure, a list of 26 candidate responsive ORs was determined (FIG. 3), that reached 74% decrease (Olfr145) or even over 80% (Olfr169) relative to controls. […] The transcript downregulation of 21 out of the 26 olfactory receptor candidates obtained by RNAseq was confirmed by qPCR.

The structures appear in SMILES notation.

What is called EC50 is the concentration at which the effect is half-maximal.

On to `CC(=O)c1ccccc1` [acetophenone], for which the half-maximal effective concentration (EC50) on Olfr556 [1], with Olfr983 and in the test with Olfr160 was under 50 µM each time. For the same compound, the “olfr556 candidate OR (RNAseq) confirmed by qPCR” value on Olfr556 [2] (5% acetophenone exposure) is “y”. Moreover, the entries for the “Olfr556 mRNA level relative to unexposed controls” value at Olfr556 [2] and on Olfr556 [2] (listed as Acetophenone) were “decrease” and “downregulates”, respectively. Besides, on Olfr556 [3], the “Olfr556 transcript modulation (RNAseq)” value is on record as “downregulated”.

Source of the values: patent US10473645B2, “Methods for identifying a receptor for a ligand and uses thereof” (UNIVERSITE DE GENEVE, priority 2014, dated 2019).
